Measured values: US10287305B2, “Substituted piperidine compound and use thereof” (Takeda Pharmaceutical Company Limited, priority 2016, dated 2019)

Target: human orexin type 2 receptor (hOX2R) (Homo sapiens (Human), UniProt O43614)
Assay: Measurement of orexin type 2 receptor agonist activity (Experimental Example 2-1, FLIPR TETRA, intracellular Ca2+)
Format: cell-based
Details: CHO dhfr- cells expressing hOX2R; for Emax: read-out: Emax (%); for Emax at 30 µM: value at 30 uM concentration, orexin B as full agonist = 100%
Description: To obtain a cell clone stably expressing human orexin type 2 receptor, human orexin type 2 receptor cDNA was inserted into pcDNA3.1(+) plasmid vector (Invitrogen), and a plasmid DNA for expression of human orexin type 2 receptor (pcDNA3.1(+)/hOX2R) was cloned. The plasmid DNA was introduced into CHO-dhfr cell by an electroporation method, and human orexin type 2 receptor expressing clone cells were obtained by limiting dilution method by using G418 drug resistance as a selection marker.
Chinese hamster ovary (CHO) dhfr-cells forcibly expressing human orexin type 2 receptor (hOX2R) were seeded in each well of Black clear bottom plate (384 wells) (Becton, Dickinson and Company) by 10,000 cells, and cultured for 16 hr in an MEM-alpha (Nikken-Bio Co., Ltd.) medium containing 100 U/ml penicillin, 100 μg/ml streptomycin, […] G418 (all above Invitrogen), and 10% fetal calf serum (Thermo), under the conditions of 37° C., 5% CO2. […] A test compound was dissolved in dimethyl sulfoxide to 10 mM, and then diluted with assay buffer 2 (20 mM HEPES, Hanks' balanced salt solution (Invitrogen), 0.1% bovine serum albumin). For the reaction, a test compound solution (10 μL) was added using Fluorescent Imaging Plate Reader TETRA (FLIPR TETRA; manufactured by Molecular Devices), a fluorescence value (excitation wavelength 488 nm, measurement wavelength 570 nm) of each well was measured every one second for 1 min, and the agonist activity was determined using the area of the fluorescence value as an indicator of intracellular Ca^2+ concentration.

[1] = agonist activity, 10 nM human orexin B = 100%

human orexin type 2 receptor (hOX2R), sequence (O43614 whole entry): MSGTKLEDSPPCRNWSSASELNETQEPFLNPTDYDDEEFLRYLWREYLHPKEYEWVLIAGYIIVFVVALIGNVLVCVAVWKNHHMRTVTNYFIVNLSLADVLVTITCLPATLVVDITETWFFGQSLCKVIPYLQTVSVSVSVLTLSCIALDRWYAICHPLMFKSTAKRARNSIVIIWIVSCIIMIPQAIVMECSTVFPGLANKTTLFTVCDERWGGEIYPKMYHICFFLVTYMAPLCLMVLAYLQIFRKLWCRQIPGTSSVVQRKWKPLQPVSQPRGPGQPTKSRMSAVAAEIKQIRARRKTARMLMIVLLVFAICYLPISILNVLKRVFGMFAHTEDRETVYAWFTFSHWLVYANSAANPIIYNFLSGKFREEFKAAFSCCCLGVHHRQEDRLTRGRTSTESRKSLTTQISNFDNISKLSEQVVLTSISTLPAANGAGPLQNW

Molecule `CC(OC(=O)N1CCC[C@H](NS(=O)(=O)N(C)C)[C@@H]1COC1CCN(c2ncccn2)CC1)C(F)(F)F` (relative stereo) [Example 316, 1,1,1-trifluoropropan-2-yl cis-3-((dimethylsulfamoyl)amino)-2-(((1-(pyrimidin-2-yl)piperidin-4-yl)oxy)methyl)piperidine-1-carboxylate] has an EC50 (FLIPR TETRA, Fluo-4AM) of 330 nM and an Emax (FLIPR TETRA, Fluo-4AM) of 91%.
`CCCNC(=O)N1CCC[C@H](NS(C)(=O)=O)[C@@H]1CO[C@H]1CC[C@@H](C(C)C)CC1` (relative stereo) [Example 100, cis-2-(((cis-4-isopropylcyclohexyl)oxy)methyl)-3-((methylsulfonyl)amino)-N-propylpiperidine-1-carboxamide] was tested, and the EC50 [1] was 2.2 nM and the Emax at 30 µM was 112%.
`CS(=O)(=O)N[C@H]1CCCN(C(=O)[C@H]2C[C@@H]2F)[C@H]1COC1CCN(c2ccccc2F)CC1` [Example 222, N-(cis-1-(((1R,2S)-2-fluorocyclopropyl)carbonyl)-2-(((1-(2-fluorophenyl)piperidin-4-yl)oxy)methyl)piperidin-3-yl)methanesulfonamide] showed an EC50 (FLIPR TETRA, Fluo-4AM) of 2100 nM and an Emax (FLIPR TETRA, Fluo-4AM) of 102%.
With `CS(=O)(=O)N[C@H]1CCCN[C@H]1CO[C@H]1CC[C@@H](c2ccc(F)cc2F)CC1` (relative stereo) [Example 142, N-(cis-2-(((cis-4-(2,4-difluorophenyl)cyclohexyl)oxy)methyl)piperidin-3-yl)methanesulfonamide] the EC50 (FLIPR TETRA, Fluo-4AM) was 4000 nM and the Emax (FLIPR TETRA, Fluo-4AM) was 96%.
`COC(=O)N1CCC[C@H](NS(C)(=O)=O)[C@@H]1COC1CCN(c2ncccn2)CC1` (relative stereo) [Example 151, methyl cis-3-((methylsulfonyl)amino)-2-(((1-(pyrimidin-2-yl)piperidin-4-yl)oxy)methyl)piperidine-1-carboxylate] showed an EC50 (FLIPR TETRA, Fluo-4AM) of 490 nM and an Emax (FLIPR TETRA, Fluo-4AM) of 107%.
Molecule `CS(=O)(=O)CC(=O)N1CCC[C@H](NS(C)(=O)=O)[C@@H]1CO[C@H]1CC[C@@H](c2ccccc2)CC1` [Example 181, N-((2R,3S)-1-((methylsulfonyl)acetyl)-2-(((cis-4-phenylcyclohexyl)oxy)methyl)piperidin-3-yl)methanesulfonamide] has an Emax (FLIPR TETRA, Fluo-4AM) of 89%.
For `CCS(=O)(=O)N[C@H]1CCCN(C(=O)Nc2ccccc2)[C@H]1CO[C@H]1CC[C@@H](C)CC1` (relative stereo) [Example 37, cis-3-((ethylsulfonyl)amino)-2-(((cis-4-methylcyclohexyl)oxy)methyl)-N-phenylpiperidine-1-carboxamide], the EC50 [1] was 880 nM and the Emax at 30 µM was 97%.
In the case of `CC(=O)N1CCC[C@H](NS(C)(=O)=O)[C@@H]1CO[C@H]1CC[C@@H](c2ccccc2C(F)F)CC1` [Example 323, N-((2R,3S)-1-acetyl-2-(((cis-4-(2-(difluoromethyl)phenyl)cyclohexyl)-oxy)methyl)piperidin-3-yl)methanesulfonamide], the EC50 (FLIPR TETRA, Fluo-4AM) is reported as 96 nM and the Emax (FLIPR TETRA, Fluo-4AM) is reported as 95%.
`CS(=O)(=O)N[C@H]1CCCN(C(=O)C2CCCC2)[C@H]1COC1CCN(c2ccccc2F)CC1` (relative stereo) [Example 229, N-(cis-1-(cyclopentylcarbonyl)-2-(((1-(2-fluorophenyl)piperidin-4-yl)oxy)methyl)piperidin-3-yl)methanesulfonamide] showed an EC50 (FLIPR TETRA, Fluo-4AM) of 1500 nM and an Emax (FLIPR TETRA, Fluo-4AM) of 85%.
`CC(C)NC(=O)N1CCC[C@H](NS(C)(=O)=O)[C@@H]1CO[C@H]1CC[C@@H](C(C)C)CC1` (relative stereo) [Example 101, cis-N-isopropyl-2-(((cis-4-isopropylcyclohexyl)oxy)methyl)-3-((methylsulfonyl)amino)piperidine-1-carboxamide] showed an EC50 [1] of 2.3 nM and an Emax at 30 µM of 115%.
`CS(=O)(=O)N[C@H]1CCCN[C@H]1CO[C@H]1CC[C@@H](c2ccccc2C(F)(F)F)CC1` [Example 23, N-((2R,3S)-2-(((cis-4-(2-(trifluoromethyl)phenyl)cyclohexyl)oxy)methyl)piperidin-3-yl)methanesulfonamide] gave an EC50 [1] of 1200 nM and an Emax at 30 µM of 90%.
With `CS(=O)(=O)N[C@H]1CCCN(C(=O)OC2CC2)[C@H]1COC1CCN(c2ncccn2)CC1` (relative stereo) [Example 287, cyclopropyl cis-3-((methylsulfonyl)amino)-2-(((1-(pyrimidin-2-yl)piperidin-4-yl)oxy)methyl)piperidine-1-carboxylate] the EC50 (FLIPR TETRA, Fluo-4AM) was 150 nM and the Emax (FLIPR TETRA, Fluo-4AM) was 99%.
In the case of `COC(=O)N1CCC[C@H](NS(C)(=O)=O)[C@@H]1CO[C@H]1C[C@@H](c2ccccc2)C1` (relative stereo) [Example 194, methyl cis-3-((methylsulfonyl)amino)-2-(((cis-3-phenylcyclobutyl)oxy)methyl)piperidine-1-carboxylate], the Emax (FLIPR TETRA, Fluo-4AM) is reported as 81%.
With `COC(=O)N1CCC[C@H](NS(C)(=O)=O)[C@@H]1CO[C@H]1CC[C@@H](c2ccccc2C(F)F)CC1` (relative stereo) [Example 322, methyl cis-2-(((cis-4-(2-(difluoromethyl)phenyl)cyclohexyl)-oxy)methyl)-3-((methylsulfonyl)amino)piperidine-1-carboxylate] the “Emax (%)” value (FLIPR TETRA, Fluo-4AM) was 71%.
Molecule `CC(C)[C@H]1CC[C@@H](OC[C@H]2[C@@H](NS(C)(=O)=O)CCCN2C(=O)NCC(F)(F)F)CC1` (relative stereo) [Example 98, cis-2-(((cis-4-isopropylcyclohexyl)oxy)methyl)-3-((methylsulfonyl)amino)-N-(2,2,2-trifluoroethyl)piperidine-1-carboxamide] has an Emax at 30 µM of 107%.
`CS(=O)(=O)N[C@H]1CCCN(S(C)(=O)=O)[C@H]1CO[C@H]1CC[C@@H](c2ccccc2)CC1` (relative stereo) [Example 152, N-(cis-1-(methylsulfonyl)-2-(((cis-4-phenylcyclohexyl)oxy)methyl)piperidin-3-yl)methanesulfonamide] showed an Emax (FLIPR TETRA, Fluo-4AM) of 96%.
`CC(C)OC(=O)N1CCC[C@H](NS(C)(=O)=O)[C@@H]1CO[C@@H]1CCN(c2ncccn2)C[C@H]1F` (relative stereo) [Example 341, isopropyl cis-2-(((trans-3-fluoro-1-(pyrimidin-2-yl)piperidin-4-yl)oxy)methyl)-3-((methylsulfonyl)amino)piperidine-1-carboxylate] showed an EC50 (FLIPR TETRA, Fluo-4AM) of 13 nM and an Emax (FLIPR TETRA, Fluo-4AM) of 103%.
`CS(=O)(=O)N[C@H]1CCCN(C(=O)C2CC2)[C@H]1CO[C@H]1CC[C@@H](c2cc(F)ccc2F)CC1` [Example 214, N-((2R,3S)-1-(cyclopropylcarbonyl)-2-(((cis-4-(2,5-difluorophenyl)cyclohexyl)oxy)methyl)piperidin-3-yl)methanesulfonamide] was tested, and the EC50 (FLIPR TETRA, Fluo-4AM) was 1.5 nM and the Emax (FLIPR TETRA, Fluo-4AM) was 105%.
For `CC(C)[C@H]1CC[C@@H](OC[C@H]2[C@@H](NS(C)(=O)=O)CCCN2S(C)(=O)=O)CC1` (relative stereo) [Example 36, N-(cis-2-(((cis-4-isopropylcyclohexyl)oxy)methyl)-1-(methylsulfonyl)piperidin-3-yl)methanesulfonamide], the Emax at 30 µM was 74%.
With `CS(=O)(=O)N[C@H]1CCCN(C(=O)C2CC2)[C@H]1CO[C@H]1CC[C@@H](c2ccccc2F)CC1` [Example 268, N-((2R,3S)-1-(cyclopropylcarbonyl)-2-(((cis-4-(2-fluorophenyl)cyclohexyl)oxy)methyl)piperidin-3-yl)methanesulfonamide] the EC50 (FLIPR TETRA, Fluo-4AM) was 1.5 nM and the Emax (FLIPR TETRA, Fluo-4AM) was 103%.
`[2H]C1C([2H])[C@]([2H])(C(C)C)C([2H])C([2H])[C@]1([2H])OC[C@H]1[C@@H](NS(C)(=O)=O)CCCN1C(C)=O` (stereo partly drawn) [Example 103, N-(cis-1-acetyl-2-(((cis-4-isopropyl(1,2,3,4,5,6-d6)cyclohexyl)oxy)methyl)piperidin-3-yl)methanesulfonamide] gave an EC50 [1] of 170 nM and an Emax at 30 µM of 98%.
Molecule `CC(C)[C@H]1CC[C@@H](OC[C@H]2[C@@H](NS(C)(=O)=O)CCCN2C(=O)CCc2ccccc2)CC1` (relative stereo) [Example 54, N-(cis-2-(((cis-4-isopropylcyclohexyl)oxy)methyl)-1-(3-phenylpropanoyl)piperidin-3-yl)methanesulfonamide] has an EC50 [1] of 4100 nM and an Emax at 30 µM of 88%.
Molecule `COC(=O)N1CCC[C@H](NS(C)(=O)=O)[C@@H]1COC1CCN(c2c(Cl)cccc2Cl)CC1` (relative stereo) [Example 186, methyl cis-2-(((1-(2,6-dichlorophenyl)piperidin-4-yl)oxy)methyl)-3-((methylsulfonyl)amino)piperidine-1-carboxylate] has an EC50 (FLIPR TETRA, Fluo-4AM) of 3300 nM and an Emax (FLIPR TETRA, Fluo-4AM) of 86%.
Molecule `COc1ccccc1[C@H]1CC[C@@H](OC[C@H]2[C@@H](NS(C)(=O)=O)CCCN2C(=O)C2CC2)CC1` [Example 28, N-((2R,3S)-1-(cyclopropylcarbonyl)-2-(((cis-4-(2-methoxyphenyl)cyclohexyl)oxy)methyl)piperidin-3-yl)methanesulfonamide] has an EC50 [1] of 2.7 nM and an Emax at 30 µM of 96%.
Molecule `CC(C)[C@H]1CC[C@@H](OC[C@H]2[C@@H](NS(C)(=O)=O)CCCN2C(=O)C2CN(S(C)(=O)=O)C2)CC1` (relative stereo) [Example 90, N-(cis-2-(((cis-4-isopropylcyclohexyl)oxy)methyl)-1-((1-(methylsulfonyl)azetidin-3-yl)carbonyl)piperidin-3-yl)methanesulfonamide] has an EC50 [1] of 2800 nM and an Emax at 30 µM of 74%.
